The subject of this experiment is RAW 264.7 cells. As to the kind of experiment: Transwell migration assay of monocytes/macrophages. Type of experiment: cell-based. Particulars: laminin 421 1 μg/ml, 30 nM-3 μM, 24 hours, concentration-dependent. As to the method:
Among several extracellular matrix (ECM), it was examined which ECM promotes the migration and infiltration of immune cells, typically monocytes/macrophages. A transwell migration assay was performed using collagen (Col), fibronectin (FN) and laminin (LN) as extracellular matrices, and detailed methods were as follows. Transwells (Corning, #3421-5 mm) were coated with gelatin (0.5 mg/ml) and RAW 264.7 cells (1×10^5 cells/well) were seeded into the top chambers. Serum free DMEM (500 μl) containing 10 μg/ml of laminin (laminin mixture, Biolamina), fibronectin or collagen, respectively, was placed in the bottom chambers. After 24 hours, cells were fixed with 70% methanol for 30 minutes and stained with 50% hematoxylin for 30 minutes. After removing non-migrating cells from the top of the membrane with a cotton swab, the membrane was taken and mounted on the slide. Migrating cells on the underside of the membrane were observed and quantified under a high magnification microscope.
Effect of laminin subtypes on the immune cell migration and infiltration was evaluated. A transwell migration assay was performed in the same manner as in Example 1 using LN111, LN211, LN221, LN411, LN421, LN511, and LN521 as various laminin subtype proteins (purchased from Biolamina). Specific sequences of laminin subtypes are referred to α4 chain of SEQ ID NO:4, α2 chain of SEQ ID NO: 10, α5 chain of SEQ ID NO: 11, β2 chain of SEQ ID NO:6, β1 chain of SEQ ID NO: 12, γ1 chain of SEQ ID NO: 8. according to the chain forming each laminin subtype,
For each of the transformed macrophages, a transwell migration assay was performed in the same manner as in Example 1 using 1 μg/ml of laminin 421.
Thus identified agents as inhibiting the translocation of KRS to the plasma membrane was added to the LN421-treated macrophages to perform a transwell migration assay. […] Migrating cells on the underside of the membrane were observed and quantified under a high magnification microscope. […]

Structures are written as SMILES. “Also recorded” adds a separate entry of the source.

As to `COc1ccc(CCN(Cc2ccc(C(=O)O)cc2)c2nc3cccc(F)c3s2)cc1` [BC-KI-00053, 4-({(7-fluorobenzo[d]thiazol-2-yl)[2-(4-methoxyphenyl)ethyl]amino}methyl)benzoic acid], the LN421-specific monocyte/macrophage migration entry was “noticeably suppressed; also recorded: significantly inhibited”.
